From ChEMBL document CHEMBL5038618, “Discovery of PT-65 as a highly potent and selective Proteolysis-targeting chimera degrader of GSK3 for treating Alzheimer's disease” (Eur J Med Chem, 2021)

What was measured:
[1] = target: T1, Protein cereblon/Glycogen synthase kinase-3 beta (Homo sapiens, UniProt P49841+Q96SW2); assay: Protac activity at CRBN/GSK3beta in human SH-SY5Y cells assessed as induction of GSK3beta degradation at 1 uM measured after 24 hrs; assay type: cell-based
Target sequence in this assay (P49841 whole entry, looked up): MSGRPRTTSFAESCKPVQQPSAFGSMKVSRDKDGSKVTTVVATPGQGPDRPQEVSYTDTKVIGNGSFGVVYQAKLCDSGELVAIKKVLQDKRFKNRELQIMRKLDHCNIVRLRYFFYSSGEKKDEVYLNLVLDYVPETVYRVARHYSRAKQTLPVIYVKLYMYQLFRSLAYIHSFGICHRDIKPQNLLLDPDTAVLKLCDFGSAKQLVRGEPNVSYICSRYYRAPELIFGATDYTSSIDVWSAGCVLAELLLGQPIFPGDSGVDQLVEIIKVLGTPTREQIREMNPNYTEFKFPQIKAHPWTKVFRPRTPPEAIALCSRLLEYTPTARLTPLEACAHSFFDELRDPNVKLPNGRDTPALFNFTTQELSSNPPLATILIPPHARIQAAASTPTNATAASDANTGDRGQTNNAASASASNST
Target sequence in this assay (Q96SW2 whole entry, looked up): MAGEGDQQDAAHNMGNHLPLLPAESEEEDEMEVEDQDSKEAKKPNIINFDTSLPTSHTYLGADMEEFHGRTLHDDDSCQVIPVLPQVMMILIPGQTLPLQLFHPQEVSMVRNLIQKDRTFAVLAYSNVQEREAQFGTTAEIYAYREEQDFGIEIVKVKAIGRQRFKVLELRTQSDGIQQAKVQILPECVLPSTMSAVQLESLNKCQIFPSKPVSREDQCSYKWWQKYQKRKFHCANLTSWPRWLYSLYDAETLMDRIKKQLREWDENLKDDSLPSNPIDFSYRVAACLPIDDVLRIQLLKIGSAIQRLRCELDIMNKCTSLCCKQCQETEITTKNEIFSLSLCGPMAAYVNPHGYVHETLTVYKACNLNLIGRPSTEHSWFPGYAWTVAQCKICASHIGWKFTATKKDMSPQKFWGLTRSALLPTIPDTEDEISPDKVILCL

[2] = target: T2, Protein cereblon/Glycogen synthase kinase-3 alpha (Homo sapiens, UniProt P49840+Q96SW2); assay: Protac activity at CRBN/GSK3alpha in human SH-SY5Y cells assessed as induction of GSK3alpha protein degradation at 1 uM measured after 24 hrs; assay type: cell-based
Target sequence in this assay (P49840 2-483 limits assumed): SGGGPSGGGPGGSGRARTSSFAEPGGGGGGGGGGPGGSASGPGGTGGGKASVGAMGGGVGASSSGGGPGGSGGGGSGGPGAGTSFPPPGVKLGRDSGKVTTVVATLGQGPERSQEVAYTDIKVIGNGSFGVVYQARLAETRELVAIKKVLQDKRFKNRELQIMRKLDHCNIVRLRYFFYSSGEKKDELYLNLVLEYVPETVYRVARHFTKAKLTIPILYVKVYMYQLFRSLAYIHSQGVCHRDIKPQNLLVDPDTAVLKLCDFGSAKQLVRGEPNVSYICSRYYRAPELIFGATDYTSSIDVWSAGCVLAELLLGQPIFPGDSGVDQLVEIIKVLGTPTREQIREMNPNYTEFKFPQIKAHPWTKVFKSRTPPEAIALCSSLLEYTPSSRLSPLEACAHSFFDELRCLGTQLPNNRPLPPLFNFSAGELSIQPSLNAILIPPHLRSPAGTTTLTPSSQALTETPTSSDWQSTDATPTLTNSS
Target sequence in this assay (Q96SW2 whole entry partner): as the sequence (Q96SW2 whole entry, looked up) above

[3] = target: T2, Protein cereblon/Glycogen synthase kinase-3 alpha; assay: Protac activity at CRBN/GSK3alpha in human SH-SY5Y cells assessed as induction of GSK3alpha degradation at 0.1 uM measured after 24 hrs; assay type: cell-based
Target sequence in this assay (P49840 2-483 limits assumed): as the sequence (P49840 2-483 limits assumed) above
Target sequence in this assay (Q96SW2 whole entry partner): as the sequence (Q96SW2 whole entry, looked up) above

[4] = target: T1, Protein cereblon/Glycogen synthase kinase-3 beta; assay: Protac activity at CRBN/GSK3beta in human SH-SY5Y cells assessed as induction of GSK3beta degradation at 0.1 uM measured after 24 hrs; assay type: cell-based
Target sequence in this assay (P49841 whole entry, looked up): as the sequence (P49841 whole entry, looked up) above
Target sequence in this assay (Q96SW2 whole entry, looked up): as the sequence (Q96SW2 whole entry, looked up) above

[5] = target: T1, Protein cereblon/Glycogen synthase kinase-3 beta; assay: Protac activity at CRBN/GSK3beta in human SH-SY5Y cells assessed as induction of GSK3beta degradation at 10 uM measured after 24 hrs; assay type: cell-based
Target sequence in this assay (P49841 whole entry, looked up): as the sequence (P49841 whole entry, looked up) above
Target sequence in this assay (Q96SW2 whole entry, looked up): as the sequence (Q96SW2 whole entry, looked up) above

[6] = target: T2, Protein cereblon/Glycogen synthase kinase-3 alpha; assay: Protac activity at CRBN/GSK3alpha in human SH-SY5Y cells assessed as induction of GSK3alpha protein degradation at 10 uM measured after 24 hrs; assay type: cell-based
Target sequence in this assay (P49840 2-483 limits assumed): as the sequence (P49840 2-483 limits assumed) above
Target sequence in this assay (Q96SW2 whole entry partner): as the sequence (Q96SW2 whole entry, looked up) above

[7] = target: T2, Protein cereblon/Glycogen synthase kinase-3 alpha; assay: Protac activity at CRBN/GSK3alpha in human SH-SY5Y cells assessed as induction of GSK3alpha protein degradation measured after 24 hrs; assay type: cell-based
Target sequence in this assay (P49840 whole entry): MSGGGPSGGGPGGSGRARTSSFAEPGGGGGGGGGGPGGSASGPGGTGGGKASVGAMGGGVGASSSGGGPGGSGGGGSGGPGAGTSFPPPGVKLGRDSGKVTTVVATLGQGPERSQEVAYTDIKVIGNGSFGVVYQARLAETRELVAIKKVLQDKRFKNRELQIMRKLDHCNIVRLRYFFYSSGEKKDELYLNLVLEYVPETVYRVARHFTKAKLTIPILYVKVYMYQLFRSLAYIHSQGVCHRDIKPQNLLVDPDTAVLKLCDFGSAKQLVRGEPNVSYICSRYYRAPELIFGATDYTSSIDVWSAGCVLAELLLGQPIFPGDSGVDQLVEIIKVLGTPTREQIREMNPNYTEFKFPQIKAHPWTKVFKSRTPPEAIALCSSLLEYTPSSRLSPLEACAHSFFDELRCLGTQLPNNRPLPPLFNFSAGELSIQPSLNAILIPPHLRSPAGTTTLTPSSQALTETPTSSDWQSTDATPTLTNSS
Target sequence in this assay (Q96SW2 whole entry): as the sequence (Q96SW2 whole entry, looked up) above

[8] = target: T1, Protein cereblon/Glycogen synthase kinase-3 beta; assay: Protac activity at CRBN/GSK3beta in human SH-SY5Y cells assessed as induction of GSK3beta degradation measured after 24 hrs; assay type: cell-based
Target sequence in this assay (P49841 whole entry): as the sequence (P49841 whole entry, looked up) above
Target sequence in this assay (Q96SW2 whole entry): as the sequence (Q96SW2 whole entry, looked up) above

SH-SY5Y [9] = assay: Induction of apoptosis in human SH-SY5Y cells assessed as necrotic cells at 10 uM preincubated for 2 hrs followed by coincubation with Abeta42 and measured after 72 hrs by Annexin V-FITC/propidium iodide staining based flow cytometry (Rvb=0.7%); assay type: functional; settings: time 74 hrs
SH-SY5Y [10] = assay: Induction of apoptosis in human SH-SY5Y cells assessed as late apoptotic cells at 10 uM preincubated for 2 hrs followed by coincubation with Abeta42 and measured after 72 hrs by Annexin V-FITC/propidium iodide staining based flow cytometry (Rvb=3.5%); assay type: functional; settings: time 74 hrs
SH-SY5Y [11] = assay: Induction of apoptosis in human SH-SY5Y cells assessed as live cells at 10 uM preincubated for 2 hrs followed by coincubation with Abeta42 and measured after 72 hrs by Annexin V-FITC/propidium iodide staining based flow cytometry (Rvb=94.8%); assay type: functional; settings: time 74 hrs
SH-SY5Y [12] = assay: Induction of apoptosis in human SH-SY5Y cells assessed as early apoptotic cells at 10 uM preincubated for 2 hrs followed by coincubation with Abeta42 and measured after 72 hrs by Annexin V-FITC/propidium iodide staining based flow cytometry (Rvb=1%); assay type: functional; settings: time 74 hrs

SMILES | Activity [1] [%] | Activity [2] [%] | Activity [3] [%] | Activity [4] [%] | other results
Nc1ncc(-c2ccc(S(=O)(=O)N3CCN(CCc4cn(CCOCCOCCOCCOCCOCCOCCNc5cccc6c5C(=O)N(C5CCC(=O)NC5=O)C6=O)nn4)CC3)cc2)nc1C(=O)Nc1cccnc1 (stereo not given) | 86 | 93.9 | 66.3 | 55.9 | 
Nc1ncc(-c2ccc(S(=O)(=O)N3CCN(Cc4cn(CCOCCOCCOCCOCCNc5cccc6c5C(=O)N(C5CCC(=O)NC5=O)C6=O)nn4)CC3)cc2)nc1C(=O)Nc1cccnc1 (stereo not given) | 65 | 79.5 | 42 | 25.7 | 
COc1ccc(-c2ocnc2C(=O)NCCCc2cn(CCOCCOCCNc3cccc4c3C(=O)N(C3CCC(=O)NC3=O)C4=O)nn2)cc1I (stereo not given) | 25.5 | 46.1 |  |  | 
Nc1ncc(-c2ccc(S(=O)(=O)N3CCN(CCc4cn(CCOCCOCCOCCOCCNc5cccc6c5C(=O)N(C5CCC(=O)NC5=O)C6=O)nn4)CC3)cc2)nc1C(=O)Nc1cccnc1 (stereo not given) | 83.1 | 91.8 | 63.8 | 55.9 | 
COc1ccc(-c2ocnc2C(=O)NCCCc2cn(CCOCCOCCOCCOCCOCCOCCNc3cccc4c3C(=O)N(C3CCC(=O)NC3=O)C4=O)nn2)cc1I (stereo not given) | 50.1 | 25.2 |  |  | 
COc1ccc(-c2ocnc2C(=O)NCCCc2cn(CCOCCOCCOCCOCCOCCOCCNc3cccc4c3C(=O)N(C3CCC(=O)NC3=O)C4=O)nn2)cc1Cl (stereo not given) | 88.8 | 60.7 |  |  | 
Nc1ncc(-c2ccc(S(=O)(=O)N3CCN(CCCCc4cn(CCOCCOCCNc5cccc6c5C(=O)N(C5CCC(=O)NC5=O)C6=O)nn4)CC3)cc2)nc1C(=O)Nc1cccnc1 (stereo not given) | 88.3 | 95.1 | 70.9 | 38.2 | 
COc1ccc(-c2ocnc2C(=O)NCCCc2cn(CCOCCOCCOCCNc3cccc4c3C(=O)N(C3CCC(=O)NC3=O)C4=O)nn2)cc1Cl (stereo not given) | 36.8 | 62.4 |  |  | Activity [5]: 73.3%; Activity [6]: 89.9%
Nc1ncc(-c2ccc(S(=O)(=O)N3CCN(CCc4cn(CCOCCOCCOCCOCCOCCNc5cccc6c5C(=O)N(C5CCC(=O)NC5=O)C6=O)nn4)CC3)cc2)nc1C(=O)Nc1cccnc1 (stereo not given) | 81.3 | 87.8 | 68.1 | 61.6 | 
COc1ccc(-c2ocnc2C(=O)NCCCn2cc(COCCOCCOCCOCC(=O)N[C@@H](C(=O)N3C[C@H](O)C[C@H]3C(=O)NCc3ccc(-c4scnc4C)cc3)C(C)(C)C)nn2)cc1Cl | < 5 | < 5 |  |  | Activity [5]: < 5%; Activity [6]: < 5%
Nc1ncc(-c2ccc(S(=O)(=O)N3CCN(Cc4cn(CCOCCOCCOCCOCCOCCOCCNc5cccc6c5C(=O)N(C5CCC(=O)NC5=O)C6=O)nn4)CC3)cc2)nc1C(=O)Nc1cccnc1 (stereo not given) | 61.3 | 75.4 | 29.7 | 15.2 | 
Nc1ncc(-c2ccc(S(=O)(=O)N3CCN(CCCCc4cn(CCOCCOCCOCCOCCNc5cccc6c5C(=O)N(C5CCC(=O)NC5=O)C6=O)nn4)CC3)cc2)nc1C(=O)Nc1cccnc1 (stereo not given) | 84.4 | 90.3 | 68.5 | 63.7 | DC50 [7]: 38.2 nM; DC50 [8]: 110 nM
Nc1ncc(-c2ccc(S(=O)(=O)N3CCN(CCCCc4cn(CCOCCOCCOCCOCCOCCOCCNc5cccc6c5C(=O)N(C5CCC(=O)NC5=O)C6=O)nn4)CC3)cc2)nc1C(=O)Nc1cccnc1 (stereo not given) | 87 | 91.4 | 71.9 | 56.7 | DC50 [7]: 40.4 nM; DC50 [8]: 66.6 nM
Nc1ncc(-c2ccc(S(=O)(=O)N3CCN(Cc4cn(CCOCCOCCOCCNC(=O)CNc5cccc6c5CN(C5CCC(=O)NC5=O)C6=O)nn4)CC3)cc2)nc1C(=O)Nc1cccnc1 (stereo not given) | < 5 | < 5 |  |  | 
COc1ccc(-c2ocnc2C(=O)NCCCc2cn(CCOCCOCCOCCNC(=O)CNc3cccc4c3CN(C3CCC(=O)NC3=O)C4=O)nn2)cc1Cl (stereo not given) | < 5 | < 5 |  |  | Activity [5]: 35.8%; Activity [6]: < 5%
COc1ccc(-c2ocnc2C(=O)NCCCc2cn(CCOCCOCCNc3cccc4c3C(=O)N(C3CCC(=O)NC3=O)C4=O)nn2)cc1Cl (stereo not given) | 28.2 | 43.8 |  |  | 
Nc1ncc(-c2ccc(S(=O)(=O)N3CCN(CCc4cn(CCOCCOCCNc5cccc6c5C(=O)N(C5CCC(=O)NC5=O)C6=O)nn4)CC3)cc2)nc1C(=O)Nc1cccnc1 (stereo not given) | 79.5 | 95.2 | 61.1 | 41.9 | 
Nc1ncc(-c2ccc(S(=O)(=O)N3CCN(Cc4cn(CCOCCOCCOCCOCCOCCNc5cccc6c5C(=O)N(C5CCC(=O)NC5=O)C6=O)nn4)CC3)cc2)nc1C(=O)Nc1cccnc1 (stereo not given) | 63.8 | 77.2 | 47.4 | 28.9 | Activity [5]: 74.5%; Activity [6]: 65.9%
Nc1ncc(-c2ccc(S(=O)(=O)N3CCN(Cc4cn(CCOCCOCCNc5cccc6c5C(=O)N(C5CCC(=O)NC5=O)C6=O)nn4)CC3)cc2)nc1C(=O)Nc1cccnc1 (stereo not given) | 39.6 | 68.9 | 46.9 | 30.5 | 
COc1ccc(-c2ocnc2C(=O)NCCCn2cc(CCCCC(=O)N[C@@H](C(=O)N3C[C@H](O)C[C@H]3C(=O)NCc3ccc(-c4scnc4C)cc3)C(C)(C)C)nn2)cc1Cl | < 5 | < 5 |  |  | Activity [5]: < 5%; Activity [6]: < 5%
Nc1ncc(-c2ccc(S(=O)(=O)N3CCN(CCCCc4cn(CCOCCOCCOCCNc5cccc6c5C(=O)N(C5CCC(=O)NC5=O)C6=O)nn4)CC3)cc2)nc1C(=O)Nc1cccnc1 (stereo not given) | 89.7 | 93.8 | 69.3 | 54.6 | 
Nc1ncc(-c2ccc(S(=O)(=O)N3CCN(CCc4cn(CCOCCOCCOCCNc5cccc6c5C(=O)N(C5CCC(=O)NC5=O)C6=O)nn4)CC3)cc2)nc1C(=O)Nc1cccnc1 (stereo not given) | 79.1 | 90.7 | 65 | 51.6 | 
Nc1ncc(-c2ccc(S(=O)(=O)N3CCN(Cc4cn(CCOCCOCCOCCNc5cccc6c5C(=O)N(C5CCC(=O)NC5=O)C6=O)nn4)CC3)cc2)nc1C(=O)Nc1cccnc1 (stereo not given) | 46.6 | 75.6 | 45.4 | 29.9 | Activity [5]: 80.2%; Activity [6]: 86.4%
COc1ccc(-c2ocnc2C(=O)NCCCn2cc(COCCOCCOCCOc3cccc4c3CN(C3CCC(=O)NC3=O)C4=O)nn2)cc1Cl (stereo not given) | 14.5 | 38.7 |  |  | Activity [5]: 37.3%; Activity [6]: 76.4%
COc1ccc(-c2ocnc2C(=O)NCCCc2cn(CCOCCOCCOCCOCCOCCNc3cccc4c3C(=O)N(C3CCC(=O)NC3=O)C4=O)nn2)cc1Cl (stereo not given) | 54.6 | 56.2 |  |  | Activity [5]: 85.2%; Activity [6]: 84.6%
COc1ccc(-c2ocnc2C(=O)NCCCc2cn(CCOCCOCCOCCNc3cccc4c3C(=O)N(C3CCC(=O)NC3=O)C4=O)nn2)cc1I (stereo not given) | 22.8 | 60.9 |  |  | 
COc1ccc(-c2ocnc2C(=O)NCCCc2cn(CCOCCOCCOCCOCCNc3cccc4c3C(=O)N(C3CCC(=O)NC3=O)C4=O)nn2)cc1I (stereo not given) | 25.9 | 46.5 |  |  | 
COc1ccc(-c2ocnc2C(=O)NCCCc2cn(CCOCCOCCOCCOCCNc3cccc4c3C(=O)N(C3CCC(=O)NC3=O)C4=O)nn2)cc1Cl (stereo not given) | 49.2 | 69.5 |  |  | 
COc1ccc(-c2ocnc2C(=O)NCCCc2cn(CCOCCOCCOCCOCCOCCNc3cccc4c3C(=O)N(C3CCC(=O)NC3=O)C4=O)nn2)cc1I (stereo not given) | 56.5 | 55.6 |  |  | 
Cn1sc(=O)n(Cc2ccccc2)c1=O |  |  |  |  | Activity (SH-SY5Y [9]): 1.1%; Activity (SH-SY5Y [10]): 5.3%; Activity (SH-SY5Y [11]): 92.4%; Activity (SH-SY5Y [12]): 1.3%
